From US20250228832A1, “METHODS FOR TREATING DISORDERS AMELIORATED BY MUSCARINIC RECEPTOR ACTIVATION” (KARUNA THERAPEUTICS, INC., priority 2022, published 2025)
Where two headings read alike, the source gives them in different places. Each block holds one molecule with its values, some of them ahead of it.

How the values were obtained:
human M3 receptor = biological target: T1, human M3 receptor (Homo sapiens, UniProt P20309); experiment: HTRF IP-One curve shift assay, M3; type: cell-based
T1 construct: expressed in transfected cells
Protocol: (§1) HTRF IP-One assays were performed using frozen cell aliquots prepared from CHO-K1 cell lines stably expressing human M1, M3, or M5 receptors. Cells were frozen following typical cell freezing protocols. […] Dissociated cells were quenched in full media and collected by centrifugation at 290×g for 5 min. […] 1 mL aliquots of cells were dispensed into cryovial tubes and frozen in a controlled rate cryo-freezer container at −80° C. Cells were stored at −80° C. (or in liquid nitrogen if stored for at least six months) until the day of the assay.
(§2) On the day before the assay, frozen cells were rapidly thawed in a 37° C. water bath, brought up in 20 mL of full media, and collected via centrifugation at 290×g for 5 min. […] Next, […] of cells (10,000 cells/well) were dispensed into 384-well coming plates in triplicate. Cells were incubated overnight in a 37° C., 5% CO2 cell incubator.
(§3) Then, 2 μL of test compounds were added to the cells and incubated for 10 min at 37° C. in a 5% CO2 cell incubator. Next, 2 μL of diluted agonists serially diluted in assay buffer at 7× final assay concentration was added to assay plates. Finally, assay plates were incubated for two hours at 37° C. in a 5% CO2 cell incubator.
(§4) Six μL of IP-1 detection reagents (IP-One Gq HTRF kit, Cisbio Cat #62IPAPEJ) were dispensed to the cells. First, the plates were incubated for two hours at room temperature (IP-One detection reagents were made according to Cisbio protocol). Then, plates were read on an Envision plate reader following the Cisbio guidelines.
(§5) Raw data for all assays was transmitted directly from plate readers into the Beacon database for processing. All assay plates contained positive and negative control wells for data normalization and scaling. […] All control wells contained DMSO at a final assay concentration that matched the test compound wells.
(§6) Counts from the standard curve wells were used to generate a sigmoidal standard curve, which was used to transform the raw counts from each well on the plate (scaling control wells and compound wells) into a pmol/well IP1 value.

human M1 receptor = biological target: T2, human M1 receptor (Homo sapiens, UniProt P11229); experiment: HTRF IP-One curve shift assay, M1; type: cell-based
T2 construct: expressed in transfected cells
T2 sequence (P11229 1-460): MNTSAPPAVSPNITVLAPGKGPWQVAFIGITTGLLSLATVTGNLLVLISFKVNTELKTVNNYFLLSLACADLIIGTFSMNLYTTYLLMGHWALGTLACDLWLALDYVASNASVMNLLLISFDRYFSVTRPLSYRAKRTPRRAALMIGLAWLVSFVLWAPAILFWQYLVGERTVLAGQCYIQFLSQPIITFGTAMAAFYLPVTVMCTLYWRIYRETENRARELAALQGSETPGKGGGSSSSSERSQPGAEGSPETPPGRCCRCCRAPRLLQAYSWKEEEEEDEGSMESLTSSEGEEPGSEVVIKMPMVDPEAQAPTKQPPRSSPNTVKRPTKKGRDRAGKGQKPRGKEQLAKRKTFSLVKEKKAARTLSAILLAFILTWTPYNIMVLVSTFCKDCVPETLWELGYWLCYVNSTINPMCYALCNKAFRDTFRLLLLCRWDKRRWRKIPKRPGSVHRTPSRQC
Protocol: as §1, §2, §3, §4, §5, §6

[1] = Emraclidine concentration 41.2 nM, read-out: Emax
[2] = Emraclidine concentration 123 nM, read-out: Emax
[3] = Emraclidine concentration 370 nM
[4] = Emraclidine concentration 1110 nM, read-out: Emax
[5] = Emraclidine concentration 3330 nM, read-out: Emax
[6] = MK-4710 concentration 41.2 nM, read-out: Emax
[7] = MK-4710 concentration 123 nM, read-out: Emax
[8] = MK-4710 concentration 1110 nM, read-out: Emax
[9] = MK-4710 concentration 3330 nM, read-out: Emax

T1 sequence (P20309 whole entry): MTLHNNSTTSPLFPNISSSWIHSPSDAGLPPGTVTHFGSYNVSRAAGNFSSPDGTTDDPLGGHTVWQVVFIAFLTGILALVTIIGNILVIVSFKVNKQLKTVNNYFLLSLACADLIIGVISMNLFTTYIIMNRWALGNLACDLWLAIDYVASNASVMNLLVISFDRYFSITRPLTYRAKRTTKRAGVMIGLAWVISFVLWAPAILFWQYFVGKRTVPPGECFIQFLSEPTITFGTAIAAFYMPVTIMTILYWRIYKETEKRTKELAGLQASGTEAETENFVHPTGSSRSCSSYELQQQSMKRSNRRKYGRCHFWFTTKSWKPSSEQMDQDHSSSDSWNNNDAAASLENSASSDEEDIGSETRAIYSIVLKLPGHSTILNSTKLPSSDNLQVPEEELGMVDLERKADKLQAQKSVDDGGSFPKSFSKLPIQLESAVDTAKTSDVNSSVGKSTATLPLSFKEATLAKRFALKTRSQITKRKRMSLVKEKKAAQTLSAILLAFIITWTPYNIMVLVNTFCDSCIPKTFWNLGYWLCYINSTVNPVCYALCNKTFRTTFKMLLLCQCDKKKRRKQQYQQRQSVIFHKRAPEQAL

Structure (SMILES): CCCCCCOc1nsnc1C1=CCCN(C)C1 [xanomeline, reference compound]
EC50 (human M3 receptor; Emraclidine concentration 0 nM): 155 nM
Emax (human M3 receptor; Emraclidine concentration 0 nM): 77.3%
Emax (human M3 receptor; [1]): 81.9%
Emax (human M3 receptor; [2]): 85.7%
Emax at […] (human M3 receptor; [3]): 91.6%
Emax (human M3 receptor; [4]): 89.1%
Emax (human M3 receptor; [5]): 80.3%
Emax at […] (human M3 receptor; Emraclidine concentration […]): 74.5%
τ (agonist pharmacology) (human M3 receptor; M4 PAM Emraclidine): 0.1
τ (agonist pharmacology) (human M3 receptor; M4 PAM MK-4710): 0.1
EC50 (human M3 receptor; MK-4710 concentration 0 nM): 147 nM
Emax (human M3 receptor; MK-4710 concentration 0 nM): 84.2%
Emax (human M3 receptor; [6]): 94.3%
Emax (human M3 receptor; [7]): 90.3%
Emax at […] (human M3 receptor; MK-4710 concentration 370 nM): 88.9%
Emax (human M3 receptor; [8]): 81%
Emax (human M3 receptor; [9]): 81.8%
Emax at […] (human M3 receptor; MK-4710 concentration […]): 81.5%

EC50 (human M1 receptor; Emraclidine concentration 0 nM): 7 nM
Emax (human M1 receptor; Emraclidine concentration 0 nM): 61.6%
Emax (human M1 receptor; [1]): 65.6%
Emax (human M1 receptor; [2]): 66.5%
Emax at […] (human M1 receptor; [3]): 71.3%
Emax (human M1 receptor; [4]): 72.8%
Emax (human M1 receptor; [5]): 79%
Emax at […] (human M1 receptor; Emraclidine concentration […]): 61%
α (cooperativity, affinity shift) (human M1 receptor; M4 PAM Emraclidine): 11.3
β (cooperativity, efficacy shift) (human M1 receptor; M4 PAM Emraclidine): 2.2
τ (agonist pharmacology) (human M1 receptor; M4 PAM Emraclidine): 0.0
α (cooperativity, affinity shift) (human M1 receptor; M4 PAM MK-4710): 3.5
β (cooperativity, efficacy shift) (human M1 receptor; M4 PAM MK-4710): 0.6
τ (agonist pharmacology) (human M1 receptor; M4 PAM MK-4710): 0.0
EC50 (human M1 receptor; MK-4710 concentration 0 nM): 8.4 nM
Emax (human M1 receptor; [6]): 81.5%
Emax (human M1 receptor; [7]): 79.6%
Emax at […] (human M1 receptor; MK-4710 concentration 370 nM): 80.9%
Emax (human M1 receptor; [8]): 86.1%
Emax (human M1 receptor; [9]): 85.8%
Emax at […] (human M1 receptor; MK-4710 concentration […]): 77.8%
EC50 (human M3 receptor; Emraclidine concentration 0 nM): 24.4 nM
Emax (human M3 receptor; Emraclidine concentration 0 nM): 42.7%
Emax (human M3 receptor; [1]): 45.3%
Emax (human M3 receptor; [2]): 50.2%
Emax at […] (human M3 receptor; [3]): 52.1%
Emax (human M3 receptor; [4]): 54.8%
Emax (human M3 receptor; [5]): 59.6%
Emax at […] (human M3 receptor; Emraclidine concentration […]): 43%
α (cooperativity, affinity shift) (human M3 receptor; M4 PAM Emraclidine): 1.0
β (cooperativity, efficacy shift) (human M3 receptor; M4 PAM Emraclidine): 2.8
τ (agonist pharmacology) (human M3 receptor; M4 PAM Emraclidine): 0.0
α (cooperativity, affinity shift) (human M3 receptor; M4 PAM MK-4710): 7.7
β (cooperativity, efficacy shift) (human M3 receptor; M4 PAM MK-4710): 1.1
τ (agonist pharmacology) (human M3 receptor; M4 PAM MK-4710): 0.0
EC50 (human M3 receptor; MK-4710 concentration 0 nM): 33.8 nM
Emax (human M3 receptor; MK-4710 concentration 0 nM): 46.7%
Emax (human M3 receptor; [6]): 49.5%
Emax (human M3 receptor; [7]): 48.3%
Emax at […] (human M3 receptor; MK-4710 concentration 370 nM): 53.4%
Emax (human M3 receptor; [8]): 51.1%
Emax (human M3 receptor; [9]): 64.4%
Emax at […] (human M3 receptor; MK-4710 concentration […]): 45.6%
Structure (SMILES): CCCCCOc1nsnc1C1=CCCCN1C [KTX-517, 3-(1-methyl-1,4,5,6-tetrahydropyridin-2-yl)-4-(pentyloxy)-1,2,5-thiadiazole]
